{"source": "patent US20210059976A1", "about": "“ORAL PHARMACEUTICAL FORMULATION COMPRISING CANNABINOIDS AND POLOXAMER” (GW Research Limited, priority 2018, published 2021)", "origin": "cited, not measured here", "key": {"[1]": {"system": "acute experimental models of generalized seizure"}, "[2]": {"settings": "20 mg oral administration, man"}}, "note": "Where two headings read alike, the source gives them in different places.", "data": [{"molecule": "C=C(C)[C@@H]1CCC(C)=C[C@H]1c1c(O)cc(CCCCC)cc1O", "note": "[CBD, cannabidiol]", "values": [{"measurement": "efficacy in acute experimental models of generalized seizure", "setting": "[1]; 100 mg/kg, but not 1 or 10 mg/kg", "result": "efficacious"}, {"measurement": "Oral bioavailability", "result": "low and unpredictable"}]}, {"molecule": "CCCCCc1cc(O)c2c(c1)OC(C)(C)[C@@H]1CCC(C)=C[C@@H]21", "note": "[THC, tetrahydrocannabinol]", "values": [{"measurement": "efficacy in acute experimental models of generalized seizure", "setting": "[1]; between 1.25 and 10 mg/kg", "result": "efficacious"}, {"measurement": "somnolence", "setting": "[2]", "result": "induces somnolence"}]}]}
